Data from patent US11192865B2, “Benzosulfonyl compounds” (Vivace Therapeutics, Inc., priority 2017, dated 2021).

Tested on: 8XTBD luciferase reporter
Experiment: YAP Reporter Assay
Type: cell-based
Conditions: Homo sapiens, HEK-293T; HEK293T cells stably transfected with 8XTBD luciferase reporter and pRLTK; 24-hr incubation; starting from 3 μM, 1:3 dilution, 10 points; read-out: Firefly Luciferase IC50
How it was run: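 HEK293T cells stably carrying the 8XTBD firefly luciferase reporter and TK-renilla control received compounds at a 10-point, 1:3 series from 3 μM (final) in quadruplicate. After 24 h at 37° C, Dual-Glo luminescence was read. IC50 and maximal inhibition were reported separately for firefly and renilla signals.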

IC50	SMILES
> 3000 nM	CNS(=O)(=O)c1ccc(NC2CCCCC2)c(-c2nnn(C3CN(c4ccccc4)C3)n2)c1 [Compound 51, 4-(cyclohexylamino)-N-methyl-3-(2-(1-phenylazetidin-3-yl)-2H-tetrazol-5-yl)benzenesulfonamide]
> 3000 nM	CNS(=O)(=O)c1ccc(NC2CCCCC2)c(-c2nnn(C3CCN(C(=O)OC(C)(C)C)C3)n2)c1 (stereo not drawn) [Compound 24, tert-butyl 3-(5-(2-(cyclohexylamino)-5-(N-methylsulfamoyl)phenyl)-2H-tetrazol-2-yl)pyrrolidine-1-carboxylate]
> 3000 nM	CNS(=O)(=O)c1ccc(NC2CCCCC2)c(-c2cccc(N(C)C)n2)c1 [Compound 83, 4-(cyclohexylamino)-3-(6-(dimethylamino)pyridin-2-yl)-N-methylbenzenesulfonamide]
> 3000 nM	CNS(=O)(=O)c1ccc(NC2CCCCC2)c(-c2cncnc2)c1 [Compound 55, 4-(cyclohexylamino)-N-methyl-3-(pyrimidin-5-yl)benzenesulfonamide]
> 3000 nM	CNS(=O)(=O)c1ccc(Nc2ccccc2C(F)(F)F)c(-c2nnn(C)n2)c1 [Compound 93, N-methyl-3-(2-methyl-2H-tetrazol-5-yl)-4-((2-(trifluoromethyl)phenyl)amino)benzenesulfonamide]
100 to 1000 nM	CNS(=O)(=O)c1ccc(Nc2cccc(F)c2F)c(-c2nnn(C)n2)c1 [Compound 104, 4-((2,3-difluorophenyl)amino)-N-methyl-3-(2-methyl-2H-tetrazol-5-yl)benzenesulfonamide]
100 to 1000 nM	CNS(=O)(=O)c1ccc(NC2CCCCC2)c(-c2nnn(C3CCN(c4cccnc4)C3)n2)c1 (stereo not drawn) [Compound 68, 4-(cyclohexylamino)-N-methyl-3-(2-(1-(pyridin-3-yl)pyrrolidin-3-yl)-2H-tetrazol-5-yl)benzenesulfonamide]
1000 to 3000 nM	CNS(=O)(=O)c1ccc(Nc2cccc(C(F)(F)F)c2)c(-c2ccnc(N)c2)c1 [Compound 152, 3-(2-Aminopyridin-4-yl)-N-methyl-4-((3-(trifluoromethyl)phenyl)amino) benzenesulfonamide]
≤ 100 nM	CNS(=O)(=O)c1ccc(NC2CCCCC2)c(-c2nnn(-c3cccnc3)n2)c1 [Compound 45, 4-(cyclohexylamino)-N-methyl-3-(2-(pyridin-3-yl)-2H-tetrazol-5-yl)benzenesulfonamide]
> 3000 nM	CNS(=O)(=O)c1ccc(Nc2ccccc2C(F)(F)F)c(-c2nnnn2C)c1 [Compound 98, N-methyl-3-(1-methyl-1H-tetrazol-5-yl)-4-((2-(trifluoromethyl)phenyl)amino)benzenesulfonamide]
> 3000 nM	CNS(=O)(=O)c1ccc(NC2CCCCC2)c(-n2ccnn2)c1 [Compound 89, 4-(cyclohexylamino)-N-methyl-3-(1H-1,2,3-triazol-1-yl)benzenesulfonamide]
> 3000 nM	CNS(=O)(=O)c1ccc(NC2CCCCC2)c(-c2nnn(-c3ccccc3)n2)c1 [Compound 34, 4-(cyclohexylamino)-N-methyl-3-(2-phenyl-2H-tetrazol-5-yl)benzenesulfonamide]
> 3000 nM	CCn1cncc1-c1cc(S(=O)(=O)NC)ccc1NC1CCCCC1 [Compound 114, 4-(cyclohexylamino)-3-(1-ethyl-1H-imidazol-5-yl)-N-methylbenzenesulfonamide]
> 3000 nM	CS(=O)(=O)c1ccc(NC2CCCCC2)c(-c2nn[nH]n2)c1 [Compound 4, N-cyclohexyl-4-(methylsulfonyl)-2-(2H-tetrazol-5-yl)aniline]
≤ 100 nM	CNS(=O)(=O)c1ccc(NC2CCCCC2)c(-c2noc(C)n2)c1 [Compound 48, 4-(cyclohexylamino)-N-methyl-3-(5-methyl-1,2,4-oxadiazol-3-yl)benzene sulfonamide]
100 to 1000 nM	CNS(=O)(=O)c1ccc(Nc2cc(F)cc(F)c2)c(-c2nnn(C)n2)c1 [Compound 108, 4-((3,5-difluorophenyl)amino)-N-methyl-3-(2-methyl-2H-tetrazol-5-yl)benzenesulfonamide]
> 3000 nM	CNS(=O)(=O)c1ccc(NC2CCCCC2)c(-c2nnn(C3CCN(c4ccccc4)CC3)n2)c1 [Compound 38, 4-(cyclohexylamino)-N-methyl-3-(2-(1-phenylpiperidin-4-yl)-2H-tetrazol-5-yl)benzenesulfonamide]
100 to 1000 nM	CNS(=O)(=O)c1ccc(NC2CCCCC2)c(-c2nc(C)no2)c1 [Compound 91, 4-(cyclohexylamino)-N-methyl-3-(3-methyl-1,2,4-oxadiazol-5-yl)benzenesulfonamide]
1000 to 3000 nM	CNS(=O)(=O)c1ccc(Nc2ccc(Oc3ccccc3)cc2)c(-c2nnn(C)n2)c1 [Compound 130, N-methyl-3-(2-methyltetrazol-5-yl)-4-(4-phenoxyanilino) benzenesulfonamide]
> 3000 nM	CNS(=O)(=O)c1ccc(NC2CCCCC2)c(-c2nnn(C3CN(S(C)(=O)=O)C3)n2)c1 [Compound 50, 4-(cyclohexylamino)-N-methyl-3-(2-(1-(methylsulfonyl)azetidin-3-yl)-2H-tetrazol-5-yl)benzenesulfonamide]

IC50	SMILES
≤ 100 nM	CNS(=O)(=O)c1ccc(Nc2cc(Cl)cc(Cl)c2)c(-c2cn(C)cn2)c1 [Compound 142, 4-(3,5-dichloroanilino)-N-methyl-3-(1-methylimidazol-4-yl)benzenesulfonamide]
> 3000 nM	CNS(=O)(=O)c1ccc(Nc2ccccc2OC(F)(F)F)c(-c2nnnn2C)c1 [Compound 101, N-methyl-3-(1-methyl-1H-tetrazol-5-yl)-4-((2-(trifluoromethoxy)phenyl)amino)benzenesulfonamide]
≤ 100 nM	CNS(=O)(=O)c1ccc(NC2CCC(F)(F)CC2)c(-c2nnn(C)n2)c1 [Compound 72, 4-((4,4-difluorocyclohexyl)amino)-N-methyl-3-(2-methyl-2H-tetrazol-5-yl)benzenesulfonamide]
> 3000 nM	Cn1cc(-c2cc(S(C)(=O)=O)ccc2NC2CCCCC2)cn1 [Compound 7, N-cyclohexyl-2-(1-methyl-1H-pyrazol-4-yl)-4-(methylsulfonyl)aniline]
≤ 100 nM	CNS(=O)(=O)c1ccc(NC2CCCCC2)c(-c2ncccn2)c1 [Compound 56, 4-(cyclohexylamino)-N-methyl-3-(pyrimidin-2-yl)benzenesulfonamide]
1000 to 3000 nM	CNS(=O)(=O)c1ccc(NC2CCCCC2)c(-c2nnn(C3CCN(C(C)C)C3)n2)c1 (stereo not drawn) [Compound 36, 4-(cyclohexylamino)-3-(2-(1-isopropylpyrrolidin-3-yl)-2H-tetrazol-5-yl)-N-methylbenzenesulfonamide]
≤ 100 nM	CCn1cnc(-c2cc(S(=O)(=O)NC)ccc2NC2CCCCC2)c1 [Compound 112, 4-(cyclohexylamino)-3-(1-ethyl-1H-imidazol-4-yl)-N-methylbenzenesulfonamide]
≤ 100 nM	CNS(=O)(=O)c1ccc(Nc2c(F)cccc2F)c(-c2cn(C)cn2)c1 [Compound 149, 4-((2,6-Difluorophenyl)amino)-N-methyl-3-(1-methyl-1H-imidazol-4-yl)benzenesulfonamide]
≤ 100 nM	CNS(=O)(=O)c1ccc(Nc2cccc(C(F)(F)F)c2)c(-c2nnn(Cc3ccccc3F)n2)c1 [Compound 136, 3-[2-[(2-Fluorophenyl)methyl]tetrazol-5-yl]-N-methyl-4-[3-(trifluoromethyl)anilino]benzene-sulfonamide]
≤ 100 nM	CNS(=O)(=O)c1ccc(Nc2cccc(C(F)(F)F)c2)c(-c2nnn(C)n2)c1 [Compound 92, N-methyl-3-(2-methyl-2H-tetrazol-5-yl)-4-((3-(trifluoromethyl)phenyl)amino)benzenesulfonamide]
≤ 100 nM	CNS(=O)(=O)c1ccc(N[C@H]2CC[C@H](C(F)(F)F)CC2)c(-c2cn(C)cn2)c1 [Compound 151, N-methyl-3-(1-methyl-1H-imidazol-4-yl)-4-(((1r,4r)-4-(trifluoromethyl)cyclohexyl)amino) benzenesulfonamide]
> 3000 nM	CNS(=O)(=O)c1ccc(NC2CCCCC2)c(-c2nnn(C3CCCN(C(C)C)C3)n2)c1 (stereo not drawn) [Compound 61, 4-(cyclohexylamino)-3-(2-(1-isopropylpiperidin-3-yl)-2H-tetrazol-5-yl)-N-methylbenzenesulfonamide]
≤ 100 nM	CNS(=O)(=O)c1ccc(Nc2cc(F)ccc2F)c(-c2nnn(C)n2)c1 [Compound 110, 4-((2,5-difluorophenyl)amino)-N-methyl-3-(2-methyl-2H-tetrazol-5-yl)benzenesulfonamide]
100 to 1000 nM	CNS(=O)(=O)c1ccc(NC2CCCCC2)c(-c2nnn(C3CN(C(C)=O)C3)n2)c1 [Compound 49, 3-(2-(1-acetylazetidin-3-yl)-2H-tetrazol-5-yl)-4-(cyclohexylamino)-N-methylbenzenesulfonamide]
≤ 100 nM	CNS(=O)(=O)c1ccc(NC2CCCCC2)c(-c2nnn(C3CCC3)n2)c1 [Compound 17, 3-(2-cyclobutyl-2H-tetrazol-5-yl)-4-(cyclohexylamino)-N-methylbenzene sulfonamide]
≤ 100 nM	CNS(=O)(=O)c1ccc(Nc2ccc(C(F)(F)F)cc2)c(-c2nnn(C)n2)c1 [Compound 95, N-methyl-3-(2-methyl-2H-tetrazol-5-yl)-4-((4-(trifluoromethyl)phenyl)amino)benzenesulfonamide]
100 to 1000 nM	CNS(=O)(=O)c1ccc(NC2CCCCC2)c(-c2cccc(N)n2)c1 [Compound 76, 3-(6-aminopyridin-2-yl)-4-(cyclohexylamino)-N-methylbenzenesulfonamide]
100 to 1000 nM	CNS(=O)(=O)c1ccc(NC2CCCCC2)c(-c2nnn(C3CCN(C(C)=O)C3)n2)c1 (stereo not drawn) [Compound 42, 3-(2-(1-acetylpyrrolidin-3-yl)-2H-tetrazol-5-yl)-4-(cyclohexylamino)-N-methylbenzenesulfonamide]
1000 to 3000 nM	CNS(=O)(=O)c1ccc(NC2CCCCC2)c(-c2ncccc2OC)c1 [Compound 80, 4-(cyclohexylamino)-3-(3-methoxypyridin-2-yl)-N-methylbenzenesulfonamide]
